Laboratory results published in ChEMBL document CHEMBL1157539, “Thousands of chemical starting points for antimalarial lead identification” (Nature, 2010).

System: Plasmodium falciparum
Test: GSK_TCMDC: Inhibition of Plasmodium falciparum 3D7 in whole erythrocytes, using parasite LDH activity as an index of growth.
Format: functional, organism-based
Conditions: Plasmodium falciparum, 3D7

Row | Compound | XC50 [nM]
1 | O=[N+]([O-])c1cccc(/C=N/Nc2ccnc3ccc(C(F)(F)F)cc23)c1 | 1090
2 | CCC[C@@H]([C@@H](CC(C)C)C(=O)N[C@@H](CCC/N=C(/N)NS(C)(=O)=O)C(=O)Nc1nccs1)N(O)C=O | 941
3 | CCNc1cc(C(=O)N[C@@H](Cc2ccccc2)[C@H](O)CNC(C)CCCC(C)C)cc(N2CCCS2(=O)=O)c1 (stereo partly specified) | 219
4 | CC1(C)CCC(C)(C)c2c1ccc(C1CCN(CCCCNC(=O)c3ccc(-c4ccc(Cl)cc4)cc3)CC1)c2O | 477
5 | FC(F)(F)c1cccc(C=NNc2nc3ccccc3[nH]2)c1 | 148
6 | CCC(C(=O)Nc1ccccc1)n1nc(-c2ccc(C)c(S(=O)(=O)N3CCCCC3)c2)ccc1=O (stereo unspecified) | 1090
7 | CCCCN(CCCC)CCCCNc1c2ccc(Cl)cc2nc2ccc(OC)cc12 | 175
8 | Cc1ccoc1C(=O)Nc1cccc(-c2cccc(-c3nc4cccc(C)c4[nH]3)c2)c1 | 675
9 | COc1cc(N(C)Cc2cnc3nc(N)nc(N)c3n2)cc(OC)c1OC | 435
10 | CN(C)CCN(Cc1ccccc1-c1ccc(CNCCc2ccccc2)cc1)C(=O)c1ccccc1 | 1700
11 | CCCN1CCN(c2ccccc2NS(=O)(=O)c2ccc(C(=O)Nc3ccc(Cl)cc3)cc2)CC1 | 1140
12 | COc1ccc2nccc([C@@H](O)CN3CCC(NCc4nc5c(F)cccc5[nH]4)CC3)c2c1 | 467
13 | COc1cc(CNc2ccc(N3CCCC3)cc2)cc(Cl)c1OC | 700
14 | NC1=NC(CCc2ccccc2)N(c2ccc(Cl)cc2)C(N)=N1 (stereo unspecified) | 38
15 | CC1(C)N=C(N)N=C(N)N1c1ccc2ccccc2c1 | 53.8
16 | Cc1noc(C)c1-c1cccc(C(=O)NC2CCN(CCNC(=O)C(c3ccccc3)c3ccccc3)CC2)c1 | 1220
17 | CSCCC(C(=O)O)N1C(=O)c2ccccc2C1=O (stereo unspecified) | 1030
18 | CN1CCC[C@H]1COc1ccc(CN2CC[C@H](NC(=O)c3ccc(Cl)c(Cl)c3)C2)cc1Cl | 1150
19 | Cc1cccc2nc(-c3cccc(-c4ccc(NC(=O)Nc5ccc(Cl)c(Cl)c5)cc4)c3)[nH]c12 | 566
20 | Cn1cncc1-c1ccc2ncnc(Nc3ccc(OCc4ccccc4)cc3)c2c1 | 1340
21 | FC(F)(F)c1cccc(Nc2nc3ccccc3nc2Nc2cccc(C(F)(F)F)c2)c1 | 137
22 | CN1CCC(N(C)c2nccc(N3CCN(Cc4cncn4Cc4ccccc4)CC3)n2)CC1 | 704
23 | O=C(NCCCCN1CCC(c2c[nH]c3ccc(-c4ccccc4)cc23)CC1)c1ccc(-c2ccccc2)cc1 | 985
24 | N#Cc1cccc(-c2cnc(N)c(-c3nc4cc(S(N)(=O)=O)ccc4[nH]3)c2)c1 | 644

Row | Compound | XC50 [nM]
25 | CCOc1cc(NCCSCc2nc[nH]c2C)nc2ccccc12 | 792
26 | CCc1c(CCNCCCCCCNCCc2ccc([N+](=O)[O-])cc2)ccc(O)c1O | 783
27 | CCOc1cc(C(=O)NCc2cccc(C(F)(F)F)c2)ccc1-c1nc2cc(Cl)ccc2[nH]1 | 977
28 | O=C(CC(c1ccccc1)c1ccccc1O)N1CCOCC1 (stereo unspecified) | 1520
29 | CNCCNC(=O)C1Cc2c([nH]c3c(C)cccc23)C(c2ccc(Cl)c(Cl)c2)N1 (stereo unspecified) | 716
30 | O=C(/C=C/c1ccc(Cl)c(Cl)c1)NCCCCCN1CCC(NC(=O)Nc2cccc(Cl)c2)CC1 | 754
31 | CC(=O)Nc1cccc(C(=O)Nc2cccc(-c3ccc(-c4nc5cccc(C)c5[nH]4)s3)c2)c1 | 767
32 | COc1ccc2nccc([C@@H](O)CN3CCC(NCc4cc5cccc6c5n(c4=O)CCC6)CC3)c2c1 | 861
33 | CC1(C)S(=O)(=O)CC(O)CS1(=O)=O | 467
34 | CC(=O)N(C)c1cccc(C(=O)Nc2ccc(-c3cccc(-c4nc5cc(C(F)(F)F)ccc5[nH]4)c3)cc2)c1 | 724
35 | CS(=O)(=O)Nc1ccc2[nH]cc(C3CCN(CC4CCC(NC(=O)/C=C/c5ccc(Cl)c(Cl)c5)CC4)CC3)c2c1 (stereo unspecified) | 847
36 | Cc1ccc(-c2csc(C)n2)c(C)c1 | 991
37 | OC1(c2ccc(Br)cc2)CCN(C2CCN(Cc3ccccc3)CC2)CC1 | 597
38 | CC[C@H]1CN2CC[C@H]1C[C@H]2[C@H](O)c1cc(-c2ccccc2C)nc2ccc(OC)cc12 | 195
39 | CCCCCCOc1ccc(N2C(N)=NC(N)=NC2(C)C)cc1 | 344
40 | CC(C)c1sc(N2CCN(C)CC2)nc1C(=O)NCCc1ccc(Cl)c(Cl)c1 | 1050
41 | O=C(Cc1ccccc1)NC(Nc1ccc([N+](=O)[O-])cc1)C(Cl)(Cl)Cl (stereo unspecified) | 973
42 | Cc1cc(-c2ccc3c(c2)CCN(CCCOc2ccc4c(c2)CCN4C(=O)/C=C/c2ccccc2Cl)CC3)no1 | 1230
43 | CCc1c(C(=O)NC2CCC(N3CCC(c4ccccc4C)CC3)CC2)[nH]c2ccc(OC)cc12 (stereo unspecified) | 808
44 | COc1ccccc1N1CCN(CCCCNC(=O)c2ccc(NC(=O)c3cc(Cl)cc(Cl)c3)cc2)CC1 | 458
45 | CCOC(=O)c1nc(-c2ccccc2)[nH]c1-n1nc(C)cc1C | 686
46 | Cc1cc(N[C@@H](CC(C)C)C(=O)NCCc2ccccc2)nc(NCC2CCCCC2)n1 | 904
47 | CC(CN(C)C)C(=O)Nc1ccc(-c2ccc(-c3nc4ccccc4[nH]3)s2)cc1 (stereo unspecified) | 717
48 | O=C(Cc1cn(-c2ccccc2)nc1-c1ccc(Cl)cc1)Nc1nccs1 | 1200

Row | Compound | XC50 [nM]
49 | COc1ccc(-c2cc(C(=O)N[C@@H](CC3CCCCC3)C(=O)NCCN3CCCC3)ccc2O)cc1 | 868
50 | COc1ccc(CNC(=O)c2cc3c(=O)n4ccccc4nc3n(CCc3ccccc3)c2=N)cc1 | 330
51 | COc1cc2c(c(Cl)c1OC)CCN(Cc1ccccc1)CC2c1ccc(C(N)=O)cc1 (stereo unspecified) | 848
52 | CN(C)c1ccc(-c2ccc(C(=O)NC3CCN(Cc4ccc(C(C)(C)C)cc4)CC3)s2)cc1 | 970
53 | COc1ccc(-c2ccc(S(=O)(=O)Nc3cc4c(cc3OC(C)C)CCNCC4)cc2)cc1 | 969
54 | COc1ccc(C(=O)c2ccc3[nH]cc(C4=CCN(C)CC4)c3c2)cc1 | 1050
55 | CC(Cc1ccc(OCCCCOc2ccccc2)cc1)NCCCc1nc2ccccc2[nH]1 (stereo unspecified) | 981
56 | O=C(Nc1cccc(CN2CCCN(Cc3ncc[nH]3)CC2)c1)c1ccc2ccccc2c1 | 632
57 | Cc1noc(C)c1-c1cccc(CNCc2ccc(-c3ccc(-c4nc5cc(C(F)(F)F)ccc5[nH]4)cc3)cc2)c1 | 172
58 | CCCCN(CCCC)/C(=N/C(=N)Nc1ccc(Cl)cc1)NCCCCCCN/C(=N\C(=N)Nc1ccc(Cl)cc1)N(CCCC)CCCC | 791
59 | Cc1ccc(CNC(=O)[C@H](CCCN)Nc2nc(NCC3CCCCC3)ncc2C)cc1 | 987
60 | FC(F)(F)c1ccc2[nH]c(-c3ccc(-c4cccc(CNCCN5CCNCC5)c4)cc3)nc2c1 | 1030
61 | CCN(CC)CCN1C(=O)C(O)(c2ccccc2Cl)c2c1cc(C(N)=O)cc2C(F)(F)F (stereo unspecified) | 703
62 | CC1CCN(c2nc(C(=O)NCCc3ccc(Cl)c(Cl)c3)c(C(C)C)s2)CC1 | 1930
63 | CCC(C)CC(=O)Nc1ccc(OC)c(S(=O)(=O)N[C@@H]2CCN(C#N)C2)c1 (stereo partly specified) | 1490
64 | COc1ccccc1-c1ccc2nnc(SCC(=O)Nc3ccc4c(c3)OCCO4)n2n1 | 716
65 | Fc1ccc2[nH]c(-c3ccc(-c4ccc(CNCCN5CCNCC5)cc4)s3)nc2c1 | 779
66 | Cc1cc(OCCCN2CCC(NS(=O)(=O)c3ccc(C(F)(F)F)cc3)CC2)c2ccccc2n1 | 1220
67 | COc1ccc(Nc2nccc(N3CCC(NC(=O)Nc4ccc5c(c4)OCO5)C3)n2)cc1 (stereo unspecified) | 599
68 | COc1cc(-c2cc(-c3ccc(OCCN(C)C)cc3)[nH]c2-c2ccncc2)ccc1Cl | 711
69 | COc1ccc(CNCc2ccc(F)cc2)cc1-c1ccc(S(=O)(=O)NCCN2CCCC2)cc1 | 1040
70 | CCOc1cc(C(=O)NCCN2CCCCC2)ccc1-c1nc2cc(Cl)ccc2[nH]1 | 1080
71 | COc1cc(C=CC(=O)N2CCC(CN3CCC(c4c[nH]c5ccccc45)CC3)CC2)cc(OC)c1 | 804
72 | COC(=O)c1ccc(CCC(C)NCC(O)c2cccc(Cl)c2)cc1 (stereo unspecified) | 670

Row | Compound | XC50 [nM]
73 | CC(C)(C)c1ccc(NC(=O)c2ccc(CN3CCCN(Cc4cccc(F)c4)CC3)cc2)cc1 | 1120
74 | CCCCCC(=O)N1CCOC(CCN2CCc3c(c4ccccc4n3C)C2)(c2ccc(Cl)c(Cl)c2)C1 (stereo unspecified) | 982
75 | Cc1ccc(C(=O)Nc2ccc(C)c(OC3CCN(CCC(C)C)C3)c2)cc1 (stereo unspecified) | 793
76 | O=C(c1cc(-c2ccco2)n[nH]1)N1CCN(S(=O)(=O)c2ccc(Cl)cc2)CC1 | 356
77 | CCOC(C(=O)OCC1CCCN1C)(c1ccccc1)c1ccccc1 (stereo unspecified) | 863
78 | CC(C)(C)NCCN(Cc1ccc(-c2ccc(C(F)(F)F)cc2)cc1)C(=O)Cn1c(CCc2cccc(F)c2F)nc(=O)c2ccccc21 | 764
79 | Cc1cccc2nc(-c3cccc(-c4ccc(NC(=O)COC(C)C)cc4)c3)[nH]c12 | 1190
80 | COc1ccc2[nH]cc(C3CCN(CCCCCNC(=O)c4ccc(-c5ccccc5)cc4)CC3)c2c1 | 795
81 | CCc1c(C)nc(-n2nc(C)cc2NC(=O)C2c3ccccc3Oc3ccccc32)[nH]c1=O | 952
82 | Cc1ccc2ccncc2c1N | 697
83 | O=C(/C=C/c1ccc(Cl)c(Cl)c1)NCC1CCC(CN2CCC(c3c[nH]c4ccccc34)CC2)CC1 (stereo unspecified) | 356
84 | Cc1csc(-c2nc(NCCc3c(C)noc3C)ncc2-c2ccsc2)n1 | 177
85 | Cc1nnc(-c2ccc3ccccc3c2)c2cn(-c3cccc([N+](=O)[O-])c3)nc12 | 988
86 | COc1ccc(C(=O)C2CC2CN2CC=C(c3c[nH]c4ccccc34)CC2)cc1 (stereo unspecified) | 532
87 | Cc1c(Cn2ncc(N3CC(C)NC(C)C3)c(Cl)c2=O)cccc1NC(=O)Nc1ccc(-c2ccccc2)cc1 (stereo unspecified) | 596
88 | COc1cccc(-c2nn(C)c3sc(C(=O)NCCN4CCN(c5ccccc5F)CC4)cc23)c1 | 955
89 | CS(=O)(=O)NCCCNCc1ccc(-c2ccc(-c3nc4cc(F)ccc4[nH]3)cc2)cc1 | 935
90 | CCCCCCc1ncc(-c2cc3cc(O)c(-c4ccccc4)cc3oc2=O)s1 | 1240
91 | CC(C)CNCc1ccc(-c2ccc(CN(C(=O)Nc3ccccc3)C3CCN(Cc4ccccc4)CC3)cc2)cc1 | 680
92 | Cc1ccc(CN2CCC(C(=O)Nc3ccc(-c4cc5ccccc5[nH]4)cc3)CC2)o1 | 1420
93 | CCCOc1ccc(OCCCON2C(=N)N=C(N)NC2(C)C)cc1 | 3.2
94 | N#Cc1ccccc1S(=O)(=O)N1CCCC(CNC(=O)[C@H](CC2CCCCC2)NC(=O)c2cc3ccccc3s2)C1 (stereo partly specified) | 515
95 | CS(=O)(=O)N(CC(O)Cn1c2ccc(Cl)cc2c2cc(Cl)ccc21)c1ccccc1 (stereo unspecified) | 897
96 | CN1CCCC(CN2CCN(Cc3cccc(-c4csc(-c5nc6ccccc6[nH]5)c4)c3)CC2)C1 (stereo unspecified) | 414
